Experimental data: patent US10844044B2 (Vanderbilt University, priority 2018, dated 2020)
Read-outs that look alike come from different tables or passages of the source.

Molecular target: WDR5 (Homo sapiens (Human), UniProt P61964)
Experiment: TR-FRET binding assay (displacement of 10mer-Thr-FAM probe from WDR5)
[1] = read-out: Ki for Inhibition of WDR5 by TR-FRET assay, TR-FRET, 10mer-Thr-FAM probe, WDR5-His tag 2 nM, pH 7.0
[2] = read-out: Ki for Inhibition of WDR5 by TR-FRET assay

Structure (SMILES)	Ki [1]	also measured
Cc1cc([C@@H](NC(=O)c2cc(Cn3ccn(C)c3=N)cc(-c3cn(CC(C)C)nc3C(F)(F)F)c2)C2CC2)ccc1F [Example 165, (S)—N-(Cyclopropyl(4-fluoro-3-methylphenyl)methyl)-3-((2-imino-3-methyl-2,3-dihydro-1H-imidazol-1-yl)methyl)-5-(1-isobutyl-3-(trifluoromethyl)-1H-pyrazol-4-yl)benzamide]	140 pM	
Cc1cc(F)ccc1-c1cc(Cn2ccn(C)c2=N)cc(C(=O)N[C@@H](c2ccc(F)c(C)n2)C2CC2)c1 [Example 167, (R)—N-(Cyclopropyl(5-fluoro-6-methylpyridin-2-yl)methyl)-4′-fluoro-5-((2-imino-3-methyl-2,3-dihydro-1H-imidazol-1-yl)methyl)-2′-methyl-[1,1′-biphenyl]-3-carboxamide]	210 pM	
Cn1ccn(Cc2cc(C(=O)NCc3ccc(Cl)c(Cl)c3)cc(-c3cccc4c3OC(F)(F)O4)c2)c1=N [Example 168, N-(3,4-Dichlorobenzyl)-3-(2,2-difluorobenzo[d][1,3]dioxol-4-yl)-5-((2-imino-3-methyl-2,3-dihydro-1H-imidazol-1-yl)methyl)benzamide]	27000 pM	
COc1cccc(-c2cc(Cn3ccn(C)c3=N)cc(C(=O)NCc3ccc(Cl)c(Cl)c3)c2)n1 [Example 169, N-(3,4-Dichlorobenzyl)-3-((2-imino-3-methyl-2,3-dihydro-1H-imidazol-1-yl)methyl)-5-(6-methoxypyridin-2-yl)benzamide]		Ki: 23000 pM
Cc1cc([C@H](C)NC(=O)c2cc(Cn3ccn(C)c3=N)cc(OC(F)(F)F)c2)ccc1F [Example 170, (S)—N-(1-(4-Fluoro-3-methylphenyl)ethyl)-3-((2-imino-3-methyl-2,3-dihydro-1H-imidazol-1-yl)methyl)-5-(trifluoromethoxy)benzamide]		Ki [2]: 220 pM
Cc1cc(F)ccc1-c1cc(Cn2ccn(C)c2=N)cc(C(=O)N[C@H](c2ccc(F)c(C)n2)C2CC2)c1 [Example 173, (S)-1N-(Cyclopropyl(5-fluoro-6-methylpyridin-2-yl)methyl)-4′-fluoro-5-((2-imino-3-methyl-2,3-dihydro-1H-imidazol-1-yl)methyl)-2′-methyl-[1,1′-biphenyl]-3-carboxamide]	890 pM	
CCOc1cc(Cn2ccn(C)c2=N)cc(C(=O)N[C@@H](C)c2ccc(F)c(C)c2)c1 [Example 176, (S)-3-Ethoxy-N-(1-(4-fluoro-3-methylphenyl)ethyl)-5-((2-imino-3-methyl-2,3-dihydro-1H-imidazol-1-yl)methyl)benzamide]	500 pM	
COc1cc(CNC(=O)c2cc(Cn3ccn(C)c3=N)cc(OCC3CC3)c2)cc(OC)c1 [Example 178, 3-(Cyclopropylmethoxy)-N-(3,5-dimethoxybenzyl)-5-((2-imino-3-methyl-2,3-dihydro-1H-imidazol-1-yl)methyl)benzamide]	3300 pM	
CCOc1cc(Cn2ccn(C)c2=N)cc(C(=O)N[C@H](c2ccc(F)c(C)c2)C2CC2)c1 [Example 180, (S)—N-(Cyclopropyl(4-fluoro-3-methylphenyl)methyl)-3-methoxy-5-((2-imino-3-methyl-2,3-dihydro-1-imidazol-1-yl)methyl)benzamide]	130 pM	
Cc1cc([C@H](C)NC(=O)c2cc(Cn3ccn(C)c3=N)cc(OCC3CC3)c2)ccc1F [Example 181, (S)-3-(Cyclopropylmethoxy)-N-(1-(4-fluoro-3-methylphenyl)ethyl)-5-((2-imino-3-methyl-2,3-dihydro-1H-imidazol-1-yl)methyl)benzamide]	350 pM	
Cc1ccnc([C@@H](NC(=O)c2cc(Cn3ccn(C)c3=N)cc(OCC3CC3)c2)C2CC2)c1 [Example 182, (S)—N-(Cyclopropyl(4-methylpyridin-2-yl)methyl)-3-(cyclopropylmethoxy)-5-((2-imino-3-methyl-2,3-dihydro-1H-imidazol-1-yl)methyl)benzamide]	1000 pM	
CCOc1cc(Cn2ccn(C)c2=N)cc(C(=O)NCc2ccc(Cl)c(C)c2)c1 [Example 183, N-(4-Chloro-3-methylbenzyl)-3-ethoxy-5-((2-imino-3-methyl-2,3-dihydro-1H-imidazol-1-yl)methyl)benzamide]	710 pM	
COc1cc(-c2cc(Cn3ccn(C)c3=N)cc(C(=O)NCc3ccc(Cl)c(Cl)c3)c2)c(F)cn1 [Example 184, N-(3,4-dichlorobenzyl)-3-(5-fluoro-2-methoxypyridin-4-yl)-5-((2-imino-3-methyl-2,3-dihydro-1H-imidazol-1-yl)methyl)benzamide]	560 pM	
CCn1cc(-c2cc(Cn3ccn(C4CC4)c3=N)cc(C(=O)NCc3ccc(F)c(C)c3)c2)c(C(F)(F)F)n1 [Example 197, 3-((3-Cyclopropyl-2-imino-2,3-dihydro-1H-imidazol-1-yl)methyl)-5-(1-ethyl-3-(trifluoromethyl)-1H-pyrazol-4-yl)-N-(4-fluoro-3-methylbenzyl)benzamide]		Ki [2]: < 100 pM
Cc1cc([C@@H](NC(=O)c2cc(Cn3ccn(C)c3=N)cc(N3CCCC3)c2)C2CC2)ccc1F [Example 206, (S)—N-(Cyclopropyl(4-fluoro-3-methylphenyl)methyl)-3-((2-imino-3-methyl-2,3-dihydro-1H-imidazol-1-yl)methyl)-5-(pyrrolidin-1-yl)benzamide]	340 pM	
Cc1cc([C@@H](NC(=O)c2cc(Cn3ccn(C)c3=N)cc(N3CCCC3)c2)C2CC2)ncc1F [Example 208, (S)—N-(Cyclopropyl(5-fluoro-4-methylpyridin-2-yl)methyl)-3-((2-imino-3-methyl-2,3-dihydro-1H-imidazol-1-yl)methyl)-5-(pyrrolidin-1-yl)benzamide]	590 pM	
Cc1cc([C@@H](NC(=O)c2cc(Cn3ccn(C)c3=N)cc(C3(C(F)(F)F)CC3)c2)C2CC2)ncc1F [Example 218, (S)—N-(cyclopropyl(5-fluoro-4-methylpyridin-2-yl)methyl)-3-((2-imino-3-methyl-2,3-dihydro-1H-imidazol-1-yl)methyl)-5-(1-(trifluoromethyl)cyclopropyl)benzamide]	< 100 pM	
Cc1cc([C@@H](NC(=O)c2cc(Cn3ccn(C)c3=N)cc(N3CCC[C@@H]3C(F)(F)F)c2)C2CC2)ccc1F [Example 222, N—((S)-Cyclopropyl(4-fluoro-3-methylphenyl)methyl)-3-((2-imino-3-methyl-2,3-dihydro-1H-imidazol-1-yl)methyl)-5-((R)-2-(trifluoromethyl)pyrrolidin-1-yl)benzamide]	330 pM	
Cc1cc([C@@H](NC(=O)c2cc(Cn3ccn(C)c3=N)cc(N3CCC[C@H]3C(F)(F)F)c2)C2CC2)ccc1F [Example 223]	1300 pM	
Cc1cc([C@@H](NC(=O)c2cc(Cn3ccn(C)c3=N)cc(-n3ccnc3C)c2)C2CC2)ccc1F [Example 224, (S)—N-(Cyclopropyl(4-fluoro-3-methylphenyl)methyl)-3-((2-imino-3-methyl-2,3-dihydro-H-imidazol-1-yl)methyl)-5-(2-methyl-1H-imidazol-1-yl)benzamide]	140 pM	
CCn1cc(-c2cc(Cn3ccn(C)c3=N)cc(C(=O)N[C@H](c3ccc(F)c(C)c3)C3CC3)c2)c(C)n1 [Example 225, (S)—N-(Cyclopropyl(4-fluoro-3-methylphenyl)methyl)-3-(1-ethyl-3-methyl-1H-pyrazol-4-yl)-5-((2-imino-3-methyl-2,3-dihydro-1H-imidazol-1-yl)methyl)benzamide]	< 100 pM	
Cc1cc([C@@H](NC(=O)c2cc(Cn3ccn(C)c3=N)cc(N3CCC[C@H]3C)c2)C2CC2)ccc1F [Example 226, N—((S)-Cyclopropyl(4-fluoro-3-methylphenyl)methyl)-3-((2-imino-3-methyl-2,3-dihydro-1H-imidazol-1-yl)methyl)-5-((R)-2-methylpyrrolidin-1-yl)benzamide]	7100 pM	
Cc1ccnc(C(NC(=O)c2cc(Cn3ccoc3=N)cc(-c3ncccc3C(F)(F)F)c2)C2CC2)c1 (centres unmarked) [Example 237, N-(Cyclopropyl(4-methylpyridin-2-yl)methyl)-3-((2-iminooxazol-3(2H)-yl)methyl)-5-(3-(trifluoromethyl)pyridin-2-yl)benzamide]	7500 pM	
Cc1cc([C@@H](NC(=O)c2cc(Cn3c(C)coc3=N)cc(-c3cccnc3C(F)(F)F)c2)C2CC2)ccc1F [Example 252, (S)—N-(Cyclopropyl(4-fluoro-3-methylphenyl)methyl)-3-((2-imino-4-methyloxazol-3(2H)-yl)methyl)-5-(2-(trifluoromethyl)pyridin-3-yl)benzamide]		Ki [2]: 21000 pM
Cc1cc([C@@H](NC(=O)c2cc(Cn3ccoc3=N)cc(-c3cncnc3C(F)(F)F)c2)C2CC2)ccc1F [Example 255, (S)—N-(Cyclopropyl(4-fluoro-3-methylphenyl)methyl)-3-((2-iminooxazol-3(2H)-yl)methyl)-5-(4-(trifluoromethyl)pyrimidin-5-yl)benzamide]	620 pM	
CCc1coc(=N)n1Cc1cc(C(=O)N[C@H](c2ccc(F)c(C)c2)C2CC2)cc(-c2cccnc2C(F)(F)F)c1 [Example 256, (S)—N-(Cyclopropyl(4-fluoro-3-methylphenyl)methyl)-3-((4-ethyl-2-iminooxazol-3(2H)-yl)methyl)-5-(2-(trifluoromethyl)pyridin-3-yl)benzamide]	2700 pM	
C[C@H](NC(=O)c1cc(Cn2ccoc2=N)cc(-c2cccnc2C(F)(F)F)c1)c1ccc(F)c(Cl)c1 [Example 257, (S)—N-(1-(3-Chloro-4-fluorophenyl)ethyl)-3-((2-iminooxazol-3(2H)-yl)methyl)-5-(2-(trifluoromethyl)pyridin-3-yl)benzamide]		Ki [2]: 2000 pM
C[C@H](NC(=O)c1cc(Cn2ccoc2=N)cc(-c2cccnc2C(F)(F)F)c1)c1ccc(C(F)(F)F)cc1 [Example 258]		Ki [2]: 5800 pM
C[C@H](NC(=O)c1cc(Cn2ccoc2=N)cc(-c2cccnc2C(F)(F)F)c1)c1ncc(F)cn1 [Example 262, (S)—N-(1-(5-Fluoropyrimidin-2-yl)ethyl)-3-((2-iminooxazol-3(2H)-yl)methyl)-5-(2-(trifluoromethyl)pyridin-3-yl)benzamide]	> 33000 pM	
